Assay results from patent publication US20230053688A1, “METHODS TO ALTER LATENCY IN EBV+ MALIGNANCIES” (Cornell University, priority 2020, published 2023).
pIC50: −log10 of the molar value. Like-named read-outs stand apart in the source and are kept apart here.

Key:
[1] = tested on: LMP1 expression in Kem I cells; experiment: microbe, parasite or virus in culture; type: cell-based, EBV; conditions: for fold induction at 1 µM / fold induction at 2.5 µM: human gammaherpesvirus 4, 48 h; for Average LMP1 Fold Increase / Replicate 1-LMP1 Fold Increase / Replicate 2-LMP1 Fold Increase: Kem I cells, 48 hours
[2] = tested on: LMP1 and Cp transcripts in Kem I, Mutu I, and Rael cell lines; type: cell-based, EBV
[3] = tested on: LMP1 and EBNA3C proteins in BL cells; experiment: Immunoblot for viral proteins in BL cells; type: cell-based, EBV; conditions: 48 hours
Description: Immunoblot was performed with the standard procedure using the following antibodies: β-actin (GeneTex), BZLF1 (Santa Cruz), EBNA1 (Santa Cruz), EBNA2 (AbCam), EBNA3C (gift from Benjamin Gewurz), GAPDH (GeneTex), and LMP1 (AbCam).
Since decitabine and 5-azacytadine were the top hits on the epigenetic screen, the effect of these agents on latency II/III transcript and protein expression was investigated as well as the dose-response in a panel of BL cell lines. BL cells were treated with decitabine or 5-azacytidine over a range of doses. Viral antigen expression was evaluated by qRT-PCR, immunoblot, and immunohistochemistry. […] This was associated with upregulation of LMP1 and EBNA3C proteins (FIG. 2B).

[4] = tested on: EBNA2 and LMP1 in Mutu I, Kem I, and Rael cells; experiment: Immunohistochemistry on cell blocks, statement across the three cell lines; type: cell-based, EBV; conditions: 5-Aza at 4 uM, 48 hours, compared with decitabine
Description: Cell blocks were generated from cell lines in suspension by fixation in 10% formalin. Immunohistochemistry on cell blocks and mouse tumors was performed with the following antibodies: EBNA2 (abcam #ab90543), LMP1 (Dako #M0897), BZLF1 (Santa Cruz #SC-53904), CD8 (Leica #PA0183), PD-1 (Dako #M3653), PD-L1 (Cell Marque #315M-98). The Halo® image analysis software program (Indica Labs) was used to quantify immunohistochemical stains.
Next it was determined the percentage of cells that convert to expressing latency […] antigens after treatment with decitabine or 5-azacytadine. To do this, EBV antigen expression at the single-cell level was evaluated by immunohistochemistry (IHC) from cell blocks. Cells were treated with 5-azacytidine, decitabine, or vehicle control. Cell blocks were then evaluated by IHC for LMP1 and EBNA2. The percentage of positive cells was quantified with HALO image analysis. […] 5-azacytidine induced a more modest expression of EBNA2 and LMP1 across the three cell lines (FIGS. 2E-F). Based on these observations, decitabine was further investigated as a potential agent to induce expression of immunogenic viral antigens in latency I tumors.

Mutu I = experiment: Cell viability, CellTiter-Glo; conditions: read-out: 48 Hour IC50
Description: (§1) Cell viability was determined using CellTiter-Glo (Promega) and the GloMax® Multi+ detection system (Promega).
(§2) Cell viability was determined using an ATP based luminescent assay (CellTiter-Glo, Promega) and the GloMax® Multi+ detection system (Promega). IC50 values were calculated using Prism 6 software.
(§3) To determine if induction of LMP1 and EBNA3 were linked to hypomethylating agent-induced cell death, cells were exposed to decitabine or 5-azacytadine over a range of doses and cell viability evaluated with the ATP-based Cell Titer-Glo® assay.

Kem I = experiment: Cell viability, CellTiter-Glo; conditions: 48 h, read-out: 48 Hour IC50
Description: as §1, §2, §3

Rael = experiment: Cell viability, CellTiter-Glo; conditions: read-out: 48 Hour IC50
Description: as §1, §2, §3

BL cells = experiment: Cell viability, CellTiter-Glo, statements for the BL cell panel
Description: as §1, §2, §3

[5] = read-out: Average LMP1 Fold Increase, Kem I cells, 2.5 uM, 48 hours, average of replicates 1 and 2
[6] = read-out: Replicate 1-LMP1 Fold Increase, Kem I cells, 2.5 uM, 48 hours, fold change in LMP1 transcript vs vehicle
[7] = read-out: Replicate 2-LMP1 Fold Increase, Kem I cells, 2.5 uM, 48 hours, fold change in LMP1 transcript vs vehicle
[8] = 2.5 uM, average of replicates 1 and 2
[9] = 2.5 uM, fold change in LMP1 transcript vs vehicle

`Nc1ncn([C@@H]2O[C@H](CO)[C@@H](O)[C@H]2O)c(=O)n1` [5-azacytidine] was tested, and the fold induction at 1 µM ([1]; read-out: Average LMP1 Fold Increase, Kem I cells, 1 uM, 48 hours, average of replicates 1 and 2) was 4.1, the fold induction at 1 µM ([1]; read-out: Replicate 1-LMP1 Fold Increase, Kem I cells, 1 uM, 48 hours, fold change in LMP1 transcript vs vehicle) was 5.77 and the fold induction at 1 µM ([1]; read-out: Replicate 2-LMP1 Fold Increase, Kem I cells, 1 uM, 48 hours, fold change in LMP1 transcript vs vehicle) was 2.43. The “optimal dose for induction” value ([2]; BL cells) was 1 to 4 µM, the “induction of LMP1 and Cp” value ([2]; at doses <1 μM, 48 hours) was “minimal” and the “LMP1 and EBNA3C proteins (immunoblot)” value [3] was “not associated with significant induction”. The “expression of EBNA2 and LMP1 (IHC)” value [4] was “more modest”, the pIC50 (Mutu I) was 5.40 and the pIC50 (Kem I) was less than 5.30. The pIC50 (Rael) was 5.66, the pIC50 (BL cells) was no more than 5.66 and the “change in cell viability” value (BL cells; at the optimal dose for induction) was “minimal change”.

`COc1ccc(-c2nc3ccc(C4=NNC(=O)CC4C)cc3[nH]2)cc1` (stereo not drawn) [Pimobendan] was tested, and the fold induction at 2.5 µM [1, 5] was 0.87, the fold induction at 2.5 µM [1, 6] was 1.11 and the fold induction at 2.5 µM [1, 7] was 0.64.

In the case of `CC(=O)c1c(C)c2cnc(Nc3ccc(N4CCNCC4)cn3)nc2n(C2CCCC2)c1=O.Cl` [Palbociclib (PD-0332991) HCl], the “Average LMP1 Fold Increase” value [1, 8] was 1.34, the “Replicate 1-LMP1 Fold Increase” value [1, 9] was 0.77 and the “Replicate 2-LMP1 Fold Increase” value [1, 9] was 1.91.

In the case of `CC(C)[C@H](O)C(=O)N[C@@H](C)C(=O)N[C@@H]1C(=O)N(C)CCc2ccccc21` [Semagacestat (LY450139)], the “Average LMP1 Fold Increase” value [1, 8] was 0.45, the “Replicate 1-LMP1 Fold Increase” value [1, 9] was 0.31 and the “Replicate 2-LMP1 Fold Increase” value [1, 9] was 0.59.

In the case of Ifenprodil Tartrate, the “Average LMP1 Fold Increase” value [1, 8] was 0.96, the “Replicate 1-LMP1 Fold Increase” value [1, 9] was 0.58 and the “Replicate 2-LMP1 Fold Increase” value [1, 9] was 1.35.

In the case of VU 0364439, the “Average LMP1 Fold Increase” value ([1]; dose 2.5 uM, LMP1 transcript by in-well qRT-PCR, average of the two replicates) was 0.90 fold, the “Replicate 1-LMP1 Fold Increase” value ([1]; dose 2.5 uM, LMP1 transcript by in-well qRT-PCR, screen replicate 1) was 1.34 fold and the “Replicate 2-LMP1 Fold Increase” value ([1]; dose 2.5 uM, LMP1 transcript by in-well qRT-PCR, screen replicate 2) was 0.45 fold.

For `CNC(=C[N+](=O)[O-])NCCSCc1ccc(CN(C)C)o1` [Ranitidine], the fold induction at 2.5 µM [1, 5] was 1.04, the fold induction at 2.5 µM [1, 6] was 0.9 and the fold induction at 2.5 µM [1, 7] was 1.18.

In the case of `C=CC(=O)Nc1cccc(Nc2nc(Nc3ccc(OCCOC)cc3)ncc2F)c1` [AVL-292], the “Average LMP1 Fold Increase” value [1, 8] was 0.52, the “Replicate 1-LMP1 Fold Increase” value [1, 9] was 0.48 and the “Replicate 2-LMP1 Fold Increase” value [1, 9] was 0.56.

For `Cl.Cl.NC1(c2ccc(-c3nc4ccn5c(=O)[nH]nc5c4cc3-c3ccccc3)cc2)CCC1` [MK-2206 2HCl], the “Average LMP1 Fold Increase” value [1, 8] was 0.51, the “Replicate 1-LMP1 Fold Increase” value [1, 9] was 0.44 and the “Replicate 2-LMP1 Fold Increase” value [1, 9] was 0.59.

In the case of `O=[N+]([O-])c1ccc2c(c1)S(=O)(=O)C=C2` [Stattic], the “Average LMP1 Fold Increase” value [1, 8] was 26.57, the “Replicate 1-LMP1 Fold Increase” value [1, 9] was 50.36 and the “Replicate 2-LMP1 Fold Increase” value [1, 9] was 2.79.

For `Cc1nn(-c2ccccc2)c(C)c1/C=N/N1CCN(Cc2ccccc2)CC1` [SANT-1], the “Average LMP1 Fold Increase” value [1, 8] was 0.64, the “Replicate 1-LMP1 Fold Increase” value [1, 9] was 0.31 and the “Replicate 2-LMP1 Fold Increase” value [1, 9] was 0.97.

With KX2-391 the “Average LMP1 Fold Increase” value [1, 8] was 1.63, the “Replicate 1-LMP1 Fold Increase” value [1, 9] was 2.01 and the “Replicate 2-LMP1 Fold Increase” value [1, 9] was 1.25.

In the case of `CCCCCCCCc1ccc(CCC(N)(CO)CO)cc1.Cl` [Fingolimod (FTY720) HCl], the “Average LMP1 Fold Increase” value [1, 8] was 0.69, the “Replicate 1-LMP1 Fold Increase” value [1, 9] was 0.33 and the “Replicate 2-LMP1 Fold Increase” value [1, 9] was 1.06.
